Molecules are shown by their SMILES. A value given as a limit tells only on which side of the number the result lay.

One experiment has as its system TNF-α. The experiment in a line: TNF-α production inhibition in macrophages derived from mouse abdomen (IFN-γ/SAC stimulation, ELISA). The experiment is classed as cell-based. To be noted: Macrophage; mouse (Balb/c) abdominal macrophages, 100 ng/mL mouse IFN-γ + 0.05% SAC, overnight; TFA salts tested where prepared as such; read-out: TNF-α-Inhibitory Activity IC50. As for the experimental part: (§1) One milliliter each of a 3% (w/v) thioglycolate solution was intraperitoneally administered to mice (female Balb/c mice), the abdominal cells of each mouse were recovered after 5 or 6 days from the administration of the thioglycolate solution and the adhesive cells were collected and used in the exaluation procedures. To a culture medium containing such adhesive cells, there were added 100 ng/mL of mouse interferon-γ and a 0.05% (v/v) liquid containing killed cells derived from Staphylococcus aureus Cowan I strain (SAC) and a candidate compound and then the mixture was cultivated overnight. After the completion of the cultivation, the survival ratios were determined, there were quantitatively determined the quantities of IL-12p70 (the complex of IL-12p35 and p40) and IL-12p40 or TNF-α according to the ELISA assays while making use of the recovered supernatant of the culture medium and the 50% production-inhibitory concentration (IC50) was calculated for each case (see Table 1 and Tables 1-9 for IL-12p70 and TNF-α and Tables 1 to 10 for IL-12p40).
On the technique in general: In an ELISA, binding on a coated surface is turned into a signal by an enzyme label.

The test system of experiment [1] is IL-12p70 (the complex of IL-12p35 and p40). The experiment is described as follows: IL-12p70 production inhibition in macrophages derived from mouse abdomen (IFN-γ/SAC stimulation, ELISA). The following applies: Macrophage; mouse (Balb/c) abdominal macrophages, 100 ng/mL mouse IFN-γ + 0.05% SAC, overnight; TFA salts tested where prepared as such; read-out: IL-12p70-Inhibitory Activity IC50. The experiment is classed as cell-based. As to the method: as §1

Turning to `Cc1cccc(/C=N/Nc2cc(N3CCOCC3)n3nc(-c4ccccc4)cc3n2)c1` [Compound 1, N-(3-methyl-benzylidene)-N′-(2-phenyl-7-morpholin-4-yl-pyrazolo[1,5-a]pyrimidin-5-yl)-hydrazine], the IC50 is greater than 10 µM in the experiment on TNF-α and 19 nM in experiment [1]. The like results for `C(=N\Nc1cc(N2CCOCC2)n2nc(-c3ccccc3)cc2n1)/c1c[nH]c2ccccc12` [Compound 2, N-(1H-indol-3-yl-methylidene)-N′-(7-morpholin-4-yl-2-phenyl-pyrazolo[1,5-a]pyrimidin-5-yl)-hydrazine] were, in that order, greater than 10 µM and 33 nM.

`Cc1ccc(-c2cc3nc(N/N=C/c4cccc(C)c4)cc(N4CCOCC4)n3n2)cc1` [Compound 3, N-(3-methyl-benzylidene)-N′-{2-(4-methylphenyl)-7-morpholin-4-yl-pyrazolo[1,5-a]pyrimidin-5-yl}-hydrazine]: the IC50 with TNF-α is greater than 10 µM; in experiment [1] it was 35 nM. With `Cc1ccc(-c2cc3nc(N/N=C/c4c[nH]c5ccccc45)cc(N4CCOCC4)n3n2)cc1` [Compound 4, N-(1H-indol-3-yl-methylidene)-N′-{2-(4-methylphenyl)-7-morpholin-4-yl-pyrazolo[1,5-a]pyrimidin-5-yl}-hydrazine], the results for the concentration for half-maximal inhibition (IC50) (in the experiment with TNF-α; in experiment [1]) were greater than 10 µM and 23 nM, respectively.

As to `Cc1ccc(-c2nn3c(N4CCOCC4)cc(N/N=C/c4cccc(C)c4)nc3c2Br)cc1` [Compound 5, N-{3-bromo-2-(4-methylphenyl)-7-morpholin-4-yl-pyrazolo-[1,5-a]pyrimidin-5-yl}-N′-(3-methyl-benzylidene)-hydrazine], the IC50 is greater than 10 µM in the experiment with TNF-α and 124 nM in experiment [1]. The like results for `Cc1cccc(/C=N/Nc2cc(N3CCOCC3)n3ncc(-c4ccccc4)c3n2)c1` [Compound 6, N-(3-methyl-benzylidene)-N′-(7-morpholin-4-yl-3-phenyl-pyrazolo[1,5-a]pyrimidin-5-yl)-hydrazine] were, in that order, greater than 10 µM and 642 nM. The matching figures for `C(=N\Nc1cc(N2CCOCC2)n2nc(-c3ccccc3)cc2n1)/c1ccccc1` [Compound 7, N-benzylidene-N′-(7-morpholin-4-yl-2-phenyl-pyrazolo-[1,5-a]pyrimidin-5-yl)-hydrazine]: greater than 10 µM and 113 nM.

As for `C(=N\Nc1cc(N2CCOCC2)n2nc(-c3ccccc3)cc2n1)/c1cccnc1` [Compound 8, N-(7-morpholin-4-yl-2-phenyl-pyrazolo[1,5-a]pyrimidin-5-yl)-N′-pyridin-3-yl-methylidene-hydrazine], the IC50 in the experiment on TNF-α is greater than 10 µM; in experiment [1] it was 407 nM. Regarding `C(=N\Nc1cc(N2CCOCC2)n2nccc2n1)/c1c[nH]c2ccccc12` [Compound 10, N-(1H-indol-3-yl-methylidene)-N′-(7-morpholin-4-yl-pyrazolo[1,5-a]pyrimidin-5-yl)-hydrazine], the IC50 was greater than 10 µM with TNF-α and 165 nM in experiment [1].

Take `Cc1cccc(/C=N/Nc2cc(N3CCOCC3)n3ncc(Br)c3n2)c1` [Compound 11, N-(3-bromo-7-morpholin-4-yl-pyrazolo[1,5-a]pyrimidin-5-yl)-N′-(3-methyl-benzylidene)-hydrazine]: the IC50 with TNF-α is greater than 10 µM; in experiment [1], 340 nM. The like results for `Cc1cccc(/C=N/Nc2cc(N3CCOCC3)n3nc(-c4cccc(Cl)c4)cc3n2)c1` [Compound 12, N-{2-(3-chloro-phenyl)-7-morpholin-4-yl-pyrazolo[1,5-a]-pyrimidin-5-yl}-N′-(3-methyl-benzylidene)-hydrazine] were, in that order, greater than 10 µM and 17 nM.

`Cc1cccc(/C=N/Nc2cc(N3CCOCC3)n3nc(-c4ccc(Cl)cc4)cc3n2)c1` [Compound 13, N-{2-(4-chlorophenyl)-7-morpholin-4-yl-pyrazolo[1,5-a]-pyrimidin-5-yl}-N′-(3-methyl-benzylidene)-hydrazine]: the IC50 was greater than 10 µM in the experiment with TNF-α and 34 nM in experiment [1]. The like results for `Cc1cccc(/C=N/Nc2cc(N3CCOCC3)n3nc(-c4ccccc4C)cc3n2)c1` [Compound 14, N-(3-methyl-benzylidene)-N′-{2-(2-methyl-phenyl)-7-morpholin-4-yl-pyrazolo[1,5-a]pyrimidin-5-yl}-hydrazine] were, in that order, greater than 10 µM and 38 nM. The like results for `COc1ccc(-c2cc3nc(N/N=C/c4cccc(C)c4)cc(N4CCOCC4)n3n2)cc1` [Compound 15, N-{2-(4-methoxy-phenyl)-7-morpholin-4-yl-pyrazolo[1,5-a]pyrimidin-5-yl}-N′-(3-methyl-benzylidene)-hydrazine] were, in that order, greater than 10 µM and 11 nM. The matching figures for `Cc1cccc(/C=N/Nc2cc(N3CCOCC3)n3nc(-c4ccc(Br)cc4)cc3n2)c1` [Compound 16, N-{2-(4-bromo-phenyl)-7-morpholin-4-yl-pyrazolo[1,5-a]-pyrimidin-5-yl}-N′-(3-methyl-benzylidene)-hydrazine]: greater than 10 µM and 18 nM.

Turning to `Cc1cccc(/C=N/Nc2cc(N3CCOCC3)n3nc(-c4ccc(N5CCOCC5)cc4)cc3n2)c1` [Compound 17, N-(3-methyl-benzylidene)-N′-{7-morpholin-4-yl-2-(4-morpholin-4-yl-phenyl)-pyrazolo[1,5-a]pyrimidin-5-yl}-hydrazine], the IC50 in the experiment with TNF-α was greater than 10 µM; in experiment [1] it was 4 nM. For the molecule `Cc1cccc(/C=N/Nc2cc(N3CCOCC3)n3nc(-c4cccs4)cc3n2)c1` [Compound 18, N-(3-methyl-benzylidene)-N′-(7-morpholin-4-yl-2-thiophen-2-yl-pyrazolo[1,5-a]pyrimidin-5-yl)-hydrazine], the IC50 was greater than 10 µM with TNF-α and 11 nM in experiment [1]. With `CCc1cccc(/C=N/Nc2cc(N3CCOCC3)n3nc(-c4cccnc4)cc3n2)c1` [Compound 115], the IC50 in experiment [1] came out at 55 nM.

Consider `C(=N\Nc1cc(N2CCOCC2)n2nc(-c3ccncn3)cc2n1)/c1c[nH]c2ccccc12` [Compound 120, N-(1H-indol-3-yl-methylidene)-N-(7-morpholin-4-yl-2-pyrimidin-4-yl-pyrazolo[1,5-a]pyrimidin-5-yl)-hydrazine], for which, in experiment [1], the IC50 amounted to 40 nM. Still for that read-out and setting: to `Cc1cccc(/C=N/Nc2cc(N3CCOCC3)n3nc(-c4cncnc4)cc3n2)c1` [Compound 124, N-(3-methyl-benzylidene)-N′-(7-morpholin-4-yl-2-pyrimidin-5-yl-pyrazolo[1,5-a]pyrimidin-5-yl)-hydrazine] belongs 20 nM; to `C(=N\Nc1cc(N2CCOCC2)n2nc(-c3ccncc3)cc2n1)/c1ccc2occc2c1` [Compound 125, N-benzofuran-5-yl-methylidene-N′-(7-morpholin-4-yl-2-pyridin-4-yl-pyrazolo[1,5-a]pyrimidin-5-yl)-hydrazine], 36 nM. On the same count and under the same terms, as for `Cc1cccc(/C=N/Nc2cc(N3CCOCC3)n3nc(N4CCOCC4)cc3n2)c1` [Compound 127, N-(3-methyl-benzylidene)-N-(2,7-dimorpholin-4-yl-pyrazolo[1,5-a]-pyrimidin-5-yl)-hydrazine], the figure is 160 nM; as for `Fc1cccc(/C=N/Nc2cc(N3CCOCC3)n3nc(-c4ccncc4)cc3n2)c1` [Compound 130, N-(3-fluoro-benzylidene)-N′-(7-morpholin-4-yl-2-pyridin-4-yl-pyrazolo[1,5-a]pyrimidin-5-yl)-hydrazine], 140 nM; as for `Cc1cccc(/C=N/Nc2cc(N3CCOCC3)n3nc(C4CCN(C(=O)OCc5ccccc5)CC4)cc3n2)c1` [Compound 131, N-[2-(1-benzyloxy-carbonyl-piperidin-4-yl)-7-morpholin-4-yl-pyrazolo[1,5-a]pyrimidin-5-yl]-N′-(3-methyl-benzylidene)-hydrazine], 100 nM.

As for `Cc1cccc(/C=N/Nc2cc(N3CCOCC3)n3nc(C4CCNCC4)cc3n2)c1` [Compound 132, N-(3-methyl-benzylidene)-N′-(7-morpholin-4-yl-2-piperidin-4-yl-pyrazolo[1,5-a]pyrimidin-5-yl)-hydrazine], in experiment [1], the half-inhibitory concentration (IC50) worked out at 470 nM. The same measure, in the same setting: to `CC(=O)N1CCC(c2cc3nc(N/N=C/c4cccc(C)c4)cc(N4CCOCC4)n3n2)CC1` [Compound 133, N-[2-(1-acetyl-piperidin-4-yl)-7-morpholin-4-yl-pyrazolo-[1,5-a]pyrimidin-5-yl]-N′-(3-methyl-benzylidene)-hydrazine] belongs 96 nM; to `Cc1cccc(/C=N/Nc2cc(N3CCOCC3)n3nc(OCc4ccccc4)cc3n2)c1` [Compound 134, N-(2-benzyloxy-7-morpholin-4-yl-pyrazolo[1,5-a]pyrimidin-5-yl)-N′-(3-methyl-benzylidene)-hydrazine], 130 nM. Take `Cc1cccc(/C=N/Nc2cc(N3CCOCC3)n3nc(C(=O)N(C)c4ccncc4)cc3n2)c1` [Compound 135, 5-[N-(3-methyl-benzylidene)-hydrazino]-7-morpholin-4-yl-pyrazolo[1,5-a]pyrimidine-2-carboxylic acid methyl-pyridin-4-yl-amide]: the IC50 in experiment [1] was 130 nM. The same measure, in the same setting: as for `OB(O)c1cccc(/C=N/Nc2cc(N3CCOCC3)n3nc(-c4ccccc4)cc3n2)c1` [Compound 139, N-(3-boronyl-benzylidene)-N-(7-morpholin-4-yl-2-phenyl-pyrazolo[1,5-a]pyrimidin-5-yl)-hydrazine], the figure is 250 nM.

As a reminder, the IC50 is the concentration that gives 50% inhibition.

These data come from patent US8314098B2, “Pyrazolo-pyrimidine compounds” (Ajinomoto Co., Inc., priority 2008, dated 2012).
